Patent publication US20090324701A1, “COMPOSITIONS CONTAINING (S)-BETHANECHOL AND THEIR USE IN THE TREATMENT OF INSULIN RESISTANCE, TYPE 2 DIABETES, GLUCOSE INTOLERANCE AND RELATED DISORDERS” (DIAMEDICA, INC., priority 2006, published 2009)

Assays:
[1] = system: rats with denervation induced HDIR; assay: RIST, reversal of HISS dependent insulin resistance caused by anterior hepatic plexus denervation (Example 8); type: in vivo, male Spraque Dawely rats; settings: for reversal of denervation induced HDIR: in words (FIG. 1); for potentiation for reversing denervation induced HDIR: dose not stated (FIG. 1); for % Potentiation: potentiation of denervated RIST index
Method: The test subjects were male Spraque Dawely rats (supplied by Charles River or The University of Manitoba) weighing between 222.0 to 375 g. The rats were separated into three test groups: For each test group, the rats were fasted for an 8 hour period and then re-fed for a 2 hour period. The rats were anesthetized with pentobarbital sodium (65 mg/kg) and were prepared surgically according to the standard animal preparation used to conduct a control RIST test (Lautt et al., 1998). After surgery the rat stabilizes for 30 minutes. Following the stabilization period and establishment of a baseline, a control RIST was carried out to show the amount of glucose needed to maintain euglycemia after a bolus administration of insulin (50 mU/kg i.v.). The animal underwent surgery to cause insulin resistance. Anterior plexus denervation and portal puncture was performed. After an hour of recovery time a post-denervation RIST was carried out. The inclusion criteria is a RIST index≧250 mg glucose/kg≦140 mg glucose/kg. For each test group, the test compound was administered at various doses μg/kg intraportal venous (0.5 mL bolus, rate of 0.05 mL/min plus 0.03 mL dead-space volume). Following administration of the test compound, a post-administration RIST was carried out and the potentiation calculated as follows: [(Reversal RIST Index−Blocked RIST Index)/Blocked RIST Index]×(100%)=% Potentiation. […] Each test group was repeated using various doses of each test compound to establish a dose-response curve. The doses were determined based upon initial findings.

muscarinic M1 receptors = target: T1, muscarinic M1 receptors (Homo sapiens, UniProt P11229); assay: Radioligand binding muscarinic M1 binding assay; settings: for competition with [3H] N-methylscopolamine for binding to muscarinic M1 receptors: in words, refers to Table 1
T1 sequence (P11229 1-460): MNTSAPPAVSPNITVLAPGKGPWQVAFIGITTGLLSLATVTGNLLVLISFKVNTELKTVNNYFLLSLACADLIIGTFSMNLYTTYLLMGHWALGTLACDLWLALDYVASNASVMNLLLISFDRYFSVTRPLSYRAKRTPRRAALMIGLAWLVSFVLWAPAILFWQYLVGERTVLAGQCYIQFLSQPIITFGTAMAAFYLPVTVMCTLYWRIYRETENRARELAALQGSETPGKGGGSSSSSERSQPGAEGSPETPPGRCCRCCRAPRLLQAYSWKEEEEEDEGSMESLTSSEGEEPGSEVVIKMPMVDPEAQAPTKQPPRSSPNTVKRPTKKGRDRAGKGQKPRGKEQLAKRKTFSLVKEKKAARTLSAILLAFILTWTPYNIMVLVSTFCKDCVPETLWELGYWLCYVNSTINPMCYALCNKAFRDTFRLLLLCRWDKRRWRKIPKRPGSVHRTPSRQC
Method: (§1) The binding assay methodology was an adaptation of the methodology set out in Buckley N J, Bonner T I, Buckley C M and Brann M R (1989), Antagonist binding properties of five cloned muscarinic receptors expressed in CHO-K1 cells. Mol Pharmacol. 35(4): 469-476 and Luthin G R and Wolfe B B (1984), Comparison of [^3H]pirenzepine and [^3H]quinuclidinylbenzilate binding to muscarine cholinergic receptors in rat brain. J Pharmacol Exp Ther. 228(3):648-655.
(§2) The binding assay was performed under the following conditions:
(§3) Source: human recombinant CHO cells
(§4) Ligand: 0.8 nM [^3H] N-Methylscopolamine
(§5) Incubation Time/Temp: 2 hours at 25° C.
(§6) Incubation Buffer: 50 mM Tris-HCl, pH 7.4, 10 mM MgCl2, 1 mM EDTA
(§7) Non-specific Ligand: 1 μM Atropine
(§8) Quantification Method: radioligand binding Significance Criteria: ≧50% of max stimulation of inhibition

muscarinic M3 receptors = target: T2, muscarinic M3 receptors (Homo sapiens, UniProt P20309); assay: Radioligand binding muscarinic M3 binding assay; settings: for competition with [3H] N-methylscopolamine for binding to muscarinic M3 receptors: in words, refers to Table 2
T2 construct: expressed in transfected cells; host or cells: CHO cells
Method: as §1, §2, §3, §4, §5, §6, §7
Bmax: 534 pmol/mg protein
as §8

[2] = system: rats with insulin resistance produced by hepatic denervation; assay: RIST, insulin sensitivity in rats with insulin resistance produced by hepatic denervation (Examples 5-7); type: in vivo, male Spraque Dawely rats; settings: total dose into the portal vein 0.001 to 0.1 μg/kg beginning 10 minutes prior to insulin (50 mU/kg i.v.); present-tense example
Method: The test subjects are male Spraque Dawely rats. The male rat is fasted for an 8 hour period and then re-fed for a 2 hour period. The rat is anesthetized with pentobarbital sodium (65 mg/kg) and is prepared surgically according to the standard animal preparation used to conduct a RIST test (Lautt et al., 1998). After surgery the rat stabilizes for 30 minutes.
Following the stabilization period and establishment of a baseline, a control RIST is carried out to show the amount of glucose needed to maintain euglycemia after a bolus administration of insulin (50 mU/kg i.v.).
The animal undergoes surgery to cause insulin resistance. Surgical denervation of hepatic nerves reaching the liver along the hepatic artery is done. After an hour of recovery time a RIST is then carried out.
Racemic bethanechol is administered to the rat that has been surgically denervated with a total dose into the portal vein of (0.001 to 0.1) μg/kg beginning 10 minutes prior to the insulin administration.
(R)-bethanechol is administered to the rat that has been surgically denervated with a total dose into the portal vein of (0.001 to 0.1) μg/kg beginning 10 minutes prior to the insulin administration.
(S)-bethanechol is administered to the rat that has been surgically denervated with a total dose into the portal vein of (0.001 to 0.1) μg/kg beginning 10 minutes prior to the insulin administration.

[3] = system: hepatic glutathione (GSH); assay: Hepatic glutathione levels in denervated rats (Bioxytech GSH420 kit); type: in vivo; settings: compared to animals treated with (R)-bethanechol or racemic bethanechol; present-tense example
Method: Hepatic glutathione (GSH) levels are determined for test animals from Example 8 which have a control RIST of ≧170 mg glucose/kg≦250 mg glucose mg/kg.
Following the post-denervation RIST analysis, a liver sample is taken from each test animal using cork borer #4 or #5 to remove a section of liver from the left lateral liver lobe. The top and bottom (1-2 mm) of the sample are trimmed and cut into 2 equal pieces. The samples are flash frozen on dry ice in tin foil, and are labeled with the experiment number and date. The samples are stored at −80 until GSH analysis is performed. Liver GSH levels are determined using the Bioxytech GSH420 kit.

[4] = compound 100 μm, 0.8 nM [3H] N-Methylscopolamine, human recombinant CHO cells
[5] = as compared to R-bethanechol and racemic bethanechol

T2 sequence (P20309 whole entry): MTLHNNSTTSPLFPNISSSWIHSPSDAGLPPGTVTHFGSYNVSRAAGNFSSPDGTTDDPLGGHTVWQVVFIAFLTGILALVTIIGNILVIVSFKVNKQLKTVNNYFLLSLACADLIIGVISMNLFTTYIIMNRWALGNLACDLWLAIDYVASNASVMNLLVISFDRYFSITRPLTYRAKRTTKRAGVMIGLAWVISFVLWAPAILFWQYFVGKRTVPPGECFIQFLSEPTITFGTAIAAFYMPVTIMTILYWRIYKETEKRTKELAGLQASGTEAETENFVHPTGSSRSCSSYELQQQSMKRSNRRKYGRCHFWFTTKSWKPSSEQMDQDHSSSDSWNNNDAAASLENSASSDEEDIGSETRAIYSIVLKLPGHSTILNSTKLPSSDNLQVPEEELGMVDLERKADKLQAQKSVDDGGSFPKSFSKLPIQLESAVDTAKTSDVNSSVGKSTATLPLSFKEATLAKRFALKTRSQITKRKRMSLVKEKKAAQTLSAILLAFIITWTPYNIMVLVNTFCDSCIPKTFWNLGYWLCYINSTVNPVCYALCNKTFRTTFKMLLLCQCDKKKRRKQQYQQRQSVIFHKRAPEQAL

SMILES | reversal of denervation induced HDIR [1] | % Inhibition (muscarinic M1 receptors; [4]) | competition with [3H] N-methylscopolamine for binding to muscarinic M1 receptors (muscarinic M1 receptors) | % Inhibition (muscarinic M3 receptors; [4]) | competition with [3H] N-methylscopolamine for binding to muscarinic M3 receptors (muscarinic M3 receptors) | RIST index: restoration of insulin sensitivity [2] | potentiation for reversing denervation induced HDIR [1] | other results
C[C@H](C[N+](C)(C)C)OC(N)=O.[Cl-] [(R)-bethanechol, (R)-(−)-2-Carbamyloxy-1-(N,N,N-trimethyl)-propylammonium chloride] | no significant reversal | 0% | did not compete | −11% | did not compete | does not significantly restore insulin sensitivity | – | –
CC(C[N+](C)(C)C)OC(N)=O (racemic) [racemic bethanechol, bethanechol] | substantial reversal | – | did not compete | – | did not compete | restores insulin sensitivity | ca. 52% | inhibition at 100 µM (muscarinic M1 receptors; [4]): -4%; inhibition at 100 µM (muscarinic M3 receptors; [4]): -5%
C[C@@H](C[N+](C)(C)C)OC(N)=O.[Cl-] [(S)-bethanechol, (S)-(+)-2-Carbamyloxy-1-(N,N,N-trimethyl)-propylammonium chloride] | substantial reversal | 31% | – | 42% | – | restores insulin sensitivity better than racemic bethanecol | ca. 72% | % Potentiation ([1]; dose 0.005 μg/kg intraportal venous): −1.81%; % Potentiation ([1]; dose 0.010 μg/kg intraportal venous): −13.01%; % Potentiation ([1]; dose 0.025 μg/kg intraportal venous): 12.24%; % Potentiation ([1]; dose 0.050 μg/kg intraportal venous): 34.66%; % Potentiation ([1]; dose 0.100 μg/kg intraportal venous): 48.29%; % Potentiation ([1]; dose 0.250 μg/kg intraportal venous): 58.16%; % Potentiation ([1]; dose 0.500 μg/kg intraportal venous): 71.19%; % Potentiation ([1]; dose 0.750 μg/kg intraportal venous): 69.08%; % Potentiation ([1]; dose 2.000 μg/kg intraportal venous): 57.21%; % Potentiation ([1]; dose 5.000 μg/kg intraportal venous): 40.27%; reversal of denervation-induced HDIR over dose range ([1]; doses ranging between 0.025 to 5.000 μg/kg, 0.250 to 2.000 μg/kg greatest % potentiation): reversed denervation-induced HDIR; increases in hepatic GSH levels [3]: greater increases in hepatic GSH levels; binding affinity for muscarinic M1 receptors (muscarinic M1 receptors; [5]): significantly higher; binding affinity for muscarinic M3 receptors (muscarinic M3 receptors; [5]): significantly higher
